pIC50: −log10 of the molar value.
System: 945468-187-T-J3-PDC spheroids with HUVEC/MSC, viability
Assay: Anticancer human tumor 945468-187-T-J3-PDC patient-derived rectal carcinoma cell line growth inhibition [PI3K]
Conditions: for pIC50: curve of first compound; for viability, T/C: stronger effect = lower value
Outline: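 Complex 3D spheroids (cancer cells + endothelial HUVEC + mesenchymal stem cells); drug pairs of targeted agent x inavolisib/alpelisib/duvelisib/copanlisib; half-log series from ~Cmax, max 10 microM if Cmax unknown; endpoint viability.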

[1] = second compound 0.0316 µM, first compound 0.0316 µM
[2] = second compound 0.0316 µM, first compound 0.1 µM
[3] = second compound 0.1 µM, first compound 0.0316 µM
[4] = second compound 0.1 µM, first compound 0.1 µM
[5] = second compound 0.316 µM, first compound 0.0316 µM
[6] = second compound 0.316 µM, first compound 0.1 µM
[7] = second compound 1 µM, first compound 0.0316 µM
[8] = second compound 1 µM, first compound 0.1 µM
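Also: spheroids exposed to agents for 7 days before viability read.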
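For viability, T/C in this document: 100% = DMSO vehicle control viability.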

Compound: Cn1cnc2c(F)c(Nc3ccc(Br)cc3Cl)c(C(=O)NOCCO)cc21 + COc1c(OCCCN2CCOCC2)ccc2c3n(c(=NC(=O)c4cnc(N)nc4)nc12)CCN3
- pIC50 (second compound 0.00316 µM): < 5.52
- pIC50 (second compound 0.01 µM): 5.90
- pIC50 (second compound 0.0316 µM): 6.81
- pIC50 (second compound 0.1 µM): > 8.02
- pIC50 (second compound 0.316 µM): > 8.02
- pIC50 (second compound 1 µM): > 8.02
- viability, T/C (second compound 0.00316 µM, first compound 0.00949 µM): 103%
- viability, T/C (second compound 0.00316 µM, first compound 0.03 µM): 99.9%
- viability, T/C (second compound 0.00316 µM, first compound 0.0949 µM): 103%
- viability, T/C (second compound 0.00316 µM, first compound 0.3 µM): 91.7%
- viability, T/C (second compound 0.00316 µM, first compound 0.949 µM): 91.8%
- viability, T/C (second compound 0.00316 µM, first compound 3 µM): 68%
- viability, T/C (second compound 0.01 µM, first compound 0.00949 µM): 96.1%
- viability, T/C (second compound 0.01 µM, first compound 0.03 µM): 103%
- viability, T/C (second compound 0.01 µM, first compound 0.0949 µM): 89.8%
- viability, T/C (second compound 0.01 µM, first compound 0.3 µM): 80.7%
- viability, T/C (second compound 0.01 µM, first compound 0.949 µM): 56.4%
- viability, T/C (second compound 0.01 µM, first compound 3 µM): 29.9%
- viability, T/C (second compound 0.0316 µM, first compound 0.00949 µM): 93.5%
- viability, T/C (second compound 0.0316 µM, first compound 0.03 µM): 67.4%
- viability, T/C (second compound 0.0316 µM, first compound 0.0949 µM): 64.3%
- viability, T/C (second compound 0.0316 µM, first compound 0.3 µM): 36.4%
- viability, T/C (second compound 0.0316 µM, first compound 0.949 µM): 27.8%
- viability, T/C (second compound 0.0316 µM, first compound 3 µM): 13.7%
- viability, T/C (second compound 0.1 µM, first compound 0.00949 µM): 42.2%
- viability, T/C (second compound 0.1 µM, first compound 0.03 µM): 33.9%
- viability, T/C (second compound 0.1 µM, first compound 0.0949 µM): 27.4%
- viability, T/C (second compound 0.1 µM, first compound 0.3 µM): 14.7%
- viability, T/C (second compound 0.1 µM, first compound 0.949 µM): 9.64%
- viability, T/C (second compound 0.1 µM, first compound 3 µM): 3.84%
- viability, T/C (second compound 0.316 µM, first compound 0.00949 µM): 17.5%
- viability, T/C (second compound 0.316 µM, first compound 0.03 µM): 18.3%
- viability, T/C (second compound 0.316 µM, first compound 0.0949 µM): 10%
- viability, T/C (second compound 0.316 µM, first compound 0.3 µM): 8.2%
- viability, T/C (second compound 0.316 µM, first compound 0.949 µM): 3.92%
- viability, T/C (second compound 0.316 µM, first compound 3 µM): 1.13%
- viability, T/C (second compound 1 µM, first compound 0.00949 µM): 13.6%
- viability, T/C (second compound 1 µM, first compound 0.03 µM): 8.89%
- viability, T/C (second compound 1 µM, first compound 0.0949 µM): 7.97%
- viability, T/C (second compound 1 µM, first compound 0.3 µM): 4.92%
- viability, T/C (second compound 1 µM, first compound 0.949 µM): 4.14%
- viability, T/C (second compound 1 µM, first compound 3 µM): 1.82%

Compound: C[C@@H](NC(=O)c1ncnc(N)c1Cl)c1ncc(C(=O)Nc2cc(C(F)(F)F)c(Cl)cn2)s1 + Cc1nc(NC(=O)N2CCCC2C(N)=O)sc1-c1ccnc(C(C)(C)C(F)(F)F)c1
- pIC50 (second compound 0.0316 µM): < 5.00
- pIC50 (second compound 0.1 µM): < 5.00
- pIC50 (second compound 0.316 µM): < 5.00
- pIC50 (second compound 1 µM): < 5.00
- pIC50 (second compound 3.16 µM): < 5.00
- pIC50 (second compound 10 µM): < 5.00
- viability, T/C [1]: 107%
- viability, T/C [2]: 107%
- viability, T/C (second compound 0.0316 µM, first compound 0.316 µM): 91.6%
- viability, T/C (second compound 0.0316 µM, first compound 1 µM): 111%
- viability, T/C (second compound 0.0316 µM, first compound 3.16 µM): 106%
- viability, T/C (second compound 0.0316 µM, first compound 10 µM): 105%
- viability, T/C [3]: 101%
- viability, T/C [4]: 97.2%
- viability, T/C (second compound 0.1 µM, first compound 0.316 µM): 94.8%
- viability, T/C (second compound 0.1 µM, first compound 1 µM): 110%
- viability, T/C (second compound 0.1 µM, first compound 3.16 µM): 111%
- viability, T/C (second compound 0.1 µM, first compound 10 µM): 107%
- viability, T/C [5]: 95.8%
- viability, T/C [6]: 98.6%
- viability, T/C (second compound 0.316 µM, first compound 0.316 µM): 95.4%
- viability, T/C (second compound 0.316 µM, first compound 1 µM): 120%
- viability, T/C (second compound 0.316 µM, first compound 3.16 µM): 112%
- viability, T/C (second compound 0.316 µM, first compound 10 µM): 100%
- viability, T/C [7]: 108%
- viability, T/C [8]: 115%
- viability, T/C (second compound 1 µM, first compound 0.316 µM): 102%
- viability, T/C (second compound 1 µM, first compound 1 µM): 114%
- viability, T/C (second compound 1 µM, first compound 3.16 µM): 97.6%
- viability, T/C (second compound 1 µM, first compound 10 µM): 107%
- viability, T/C (second compound 3.16 µM, first compound 0.0316 µM): 108%
- viability, T/C (second compound 3.16 µM, first compound 0.1 µM): 98%
- viability, T/C (second compound 3.16 µM, first compound 0.316 µM): 101%
- viability, T/C (second compound 3.16 µM, first compound 1 µM): 96.4%
- viability, T/C (second compound 3.16 µM, first compound 3.16 µM): 99%
- viability, T/C (second compound 3.16 µM, first compound 10 µM): 103%
- viability, T/C (second compound 10 µM, first compound 0.0316 µM): 67.1%
- viability, T/C (second compound 10 µM, first compound 0.1 µM): 51.1%
- viability, T/C (second compound 10 µM, first compound 0.316 µM): 44.1%
- viability, T/C (second compound 10 µM, first compound 1 µM): 56%
- viability, T/C (second compound 10 µM, first compound 3.16 µM): 61.9%
- viability, T/C (second compound 10 µM, first compound 10 µM): 51.3%

Compound: CC(C)n1nc(-c2ccc3oc(N)nc3c2)c2c(N)ncnc21 + COc1c(OCCCN2CCOCC2)ccc2c3n(c(=NC(=O)c4cnc(N)nc4)nc12)CCN3
- pIC50 (second compound 0.00316 µM): 7.12
- pIC50 (second compound 0.01 µM): 7.20
- pIC50 (second compound 0.0316 µM): 7.59
- pIC50 (second compound 0.1 µM): > 9.50
- pIC50 (second compound 0.316 µM): > 9.50
- pIC50 (second compound 1 µM): > 9.50
- viability, T/C (second compound 0.00316 µM, first compound 0.000316 µM): 104%
- viability, T/C (second compound 0.00316 µM, first compound 0.001 µM): 85.7%
- viability, T/C (second compound 0.00316 µM, first compound 0.00316 µM): 95.1%
- viability, T/C (second compound 0.00316 µM, first compound 0.01 µM): 78.7%
- viability, T/C (second compound 0.00316 µM, first compound 0.0316 µM): 92.8%
- viability, T/C (second compound 0.00316 µM, first compound 0.1 µM): 37.2%
- viability, T/C (second compound 0.01 µM, first compound 0.000316 µM): 97.2%
- viability, T/C (second compound 0.01 µM, first compound 0.001 µM): 81.2%
- viability, T/C (second compound 0.01 µM, first compound 0.00316 µM): 93.9%
- viability, T/C (second compound 0.01 µM, first compound 0.01 µM): 86.2%
- viability, T/C (second compound 0.01 µM, first compound 0.0316 µM): 90.4%
- viability, T/C (second compound 0.01 µM, first compound 0.1 µM): 22.7%
- viability, T/C (second compound 0.0316 µM, first compound 0.000316 µM): 88.7%
- viability, T/C (second compound 0.0316 µM, first compound 0.001 µM): 77.2%
- viability, T/C (second compound 0.0316 µM, first compound 0.00316 µM): 85%
- viability, T/C (second compound 0.0316 µM, first compound 0.01 µM): 78.4%
- viability, T/C [1]: 43.6%
- viability, T/C [2]: 17.1%
- viability, T/C (second compound 0.1 µM, first compound 0.000316 µM): 46%
- viability, T/C (second compound 0.1 µM, first compound 0.001 µM): 34%
- viability, T/C (second compound 0.1 µM, first compound 0.00316 µM): 33.9%
- viability, T/C (second compound 0.1 µM, first compound 0.01 µM): 26.2%
- viability, T/C [3]: 20.2%
- viability, T/C [4]: 13.6%
- viability, T/C (second compound 0.316 µM, first compound 0.000316 µM): 20.6%
- viability, T/C (second compound 0.316 µM, first compound 0.001 µM): 21.3%
- viability, T/C (second compound 0.316 µM, first compound 0.00316 µM): 21.6%
- viability, T/C (second compound 0.316 µM, first compound 0.01 µM): 17.6%
- viability, T/C [5]: 16.6%
- viability, T/C [6]: 13.7%
- viability, T/C (second compound 1 µM, first compound 0.000316 µM): 18.5%
- viability, T/C (second compound 1 µM, first compound 0.001 µM): 15.9%
- viability, T/C (second compound 1 µM, first compound 0.00316 µM): 14.1%
- viability, T/C (second compound 1 µM, first compound 0.01 µM): 13.2%
- viability, T/C [7]: 12.6%
- viability, T/C [8]: 10.5%
